Test results published in patent US20250008983A1, “COMPOSITIONS CONTAINING PEROXYACIDS TO CONTROL PATHOGEN GROWTH IN ANIMAL FEED AND RELATED METHODS” (KEMIN INDUSTRIES, INC., priority 2023, published 2025).
“And” between values parts separate entries of the source, which are not always exact repeats. Equal entries are not always repeated.

Legend:
[1] = Stability of PPA in various diluent (peroxy value by titrimetry); type: physicochemical
Procedure: Stability of PPA in various diluent. In a separate study, the peroxy value of the mixture was estimated using the titrimetry procedure in 10 minutes and after 4 h of preparing the PPA solution with different diluents.
The peroxy acid value of PPA, when diluted with different diluents, is summarized below in Table 12.

[2] = test system: S. enteriditis ATCC 13076; assay: Cell membrane permeability, crystal violet assay; type: cell-based, Salmonella enteriditis; details: n = 3, two hours at 37° C., ~pH 7, listed as PPA
Procedure: Method. Cell membrane permeability was determined through crystal violet assay where an alteration in the outer cell membrane will result in a higher uptake of the dye, indicating a greater membrane permeability. An overnight culture of S. enteriditis ATCC 13076 in TSBYE was harvested with centrifugation at 6700 rcf for five minutes at room temperature using Eppendorf Centrifuge 5810 R. Upon aspirating the TSBYE, the cell pellets were washed with phosphate-buffered saline (PBS, pH 7.4, 10 mM) twice and resuspended in PBS. Subsequently, 0.75 mL of the cell suspension was added to 0.75 mL of the treatment (prepared in 10 mM PBS) into a two-milliliters microcentrifuge tube and incubated for two hours at 37° C. with agitation at 150 rpm. Cells without any treatments served as the negative control. After two hours of incubation, the cells were again harvested with centrifugation at 6700 rcf for five mins. Subsequently, the cells were resuspended in 10 μg/mL of crystal violet solution prepared in PBS and incubated for another 15 minutes with agitation at 150 rpm. After incubation, the suspension was centrifuged at 13,000 rcf for 15 minutes. The absorbance of the supernatant in each tube was measured at 590 nm. The percentage of dye uptake was calculated based on the ratio of absorbance values (Equation 1).

[3] = test system: cocktail of four freeze-dried salmonella strains; assay: Peroxypropionic acid efficacy against Salmonella in swine feed; type: cell-based, Salmonella typhimurium, senftenberg, montevideo, enteritidis; details: for Average CFU/g feed / Log CFU/g / Total CFU: 4 h; for Total counts in CFU at 4 h (n = 5): swine mash feed, PPA with sodium phosphate buffer (9:1), ~pH 7-8, five replicate cells
Source text: Swine mash feed contains a bigger particle size of corn-soy matrix compared to broiler mash feed. Thus, it could pose a challenge to expect the same antimicrobial efficacy as observed in broiler feed due to the shielding effect. Therefore, to maximize the efficacy of the peroxypropionic acid on the swine feed, an optimal droplet size of the peroxypropionic acid was required to ensure maximum distribution of the product onto the feed. Swine mash feed of 25 g was taken in five individual bags and inoculated with 10 mg cocktail of four freeze-dried salmonella strains of Salmonella typhimurium ATCC 14028, Salmonella senftenberg ATCC 43485, Salmonella montevideo ATCC 8387, and Salmonella enteritidis ATCC 13076 in such a way that the total infection in the feed was ˜2 logs. Then, the feed samples were treated with peroxypropionic acid solution (˜17% PPA, 7% H2O2) and sodium phosphate buffer premix (9:1 ratio) at 1.5 kg/T, 3 Kg/T, and 6 Kg/T. The feed was enumerated completely for Salmonella count using EB plates at 4 h after treatment. Two untreated controls, NC-A and NC-B were kept as negative controls to represent the infection in the feed.

[4] = Degradation of PPA in diluted/Opticurb solutions with mild steel; type: physicochemical; details: in contact with mild steel
Procedure: Degradation of PPA in diluted/Opticurb solutions with mild steel. In another study, the solution of PPA with different diluents was measured for the peroxyacid content initially and after 1 h of immersing the […] to test the PPA degradation rate.

[5] = 2.5% ammonium hydroxide, after 10 minutes
[6] = 2.5% ammonium hydroxide, after 240 minutes
[7] = 5% sodium hydroxide, after 10 minutes
[8] = 5% sodium hydroxide, after 240 minutes
[9] = Deionized Water, after 10 minutes
[10] = Deionized Water, after 240 minutes
[11] = Sodium phosphate buffer, after 10 minutes
[12] = Sodium phosphate buffer, after 240 minutes
[13] = 2.5% ammonium hydroxide, after 15 minutes
[14] = 2.5% ammonium hydroxide, after 60 minutes
[15] = 5% sodium hydroxide, after 15 minutes
[16] = 5% sodium hydroxide, after 60 minutes
[17] = Sodium phosphate buffer, after 15 minutes
[18] = Sodium phosphate buffer, after 60 minutes

CCC(=O)OO [Perpropionic acid, perpropionic acid]
pH ([1]; 2 g PPA + 8 g 2.5% ammonium hydroxide): 6.11
pH ([1]; 2 g PPA + 8 g 5% sodium hydroxide): 5.44
pH ([1]; 2 g PPA + 8 g Deionized Water): 1.77
pH ([1]; 2 g PPA + 8 g Sodium phosphate buffer): 5.34
H2O2 (%) [1, 5]: 1.85%
PPA (%) [1, 5]: 4.18%
H2O2 (%) [1, 6]: 2.34%
PPA (%) [1, 6]: 3.31%
H2O2 (%) [1, 7]: 1.47%
PPA (%) [1, 7]: 4.4%
H2O2 (%) [1, 8]: 1.12%
PPA (%) [1, 8]: 2.55%
H2O2 (%) [1, 9]: 1.85%
PPA (%) [1, 9]: 5.54%
H2O2 (%) [1, 10]: 1.96%
PPA (%) [1, 10]: 4.75%
H2O2 (%) [1, 11]: 1.92%
PPA (%) [1, 11]: 5.82%
H2O2 (%) [1, 12]: 1.88%
PPA (%) [1, 12]: 5.19%
Dye uptake, Average ± SD ([2]; 1 kg/T): 67.32% and 67.32 ± 0.80^d %
Dye uptake, Average ± SD ([2]; 2.5 kg/T): 83.82% and 83.82 ± 0.78^e %
Dye uptake, Average ± SD ([2]; 5 kg/T): 88.27% and 88.27 ± 0.42^f %
Average CFU/g feed ([3]; 1.5 Kg/T): 18 CFU/g feed
Log CFU/g ([3]; 1.5 Kg/T): 1.26 Log CFU/g
Total CFU ([3]; 1.5 Kg/T): 90 CFU
Average CFU/g feed ([3]; 3 Kg/T): 0 CFU/g feed
Log CFU/g ([3]; 3 Kg/T): 0.00 Log CFU/g
Total CFU ([3]; 3 Kg/T): 0 CFU
Average CFU/g feed ([3]; 6 Kg/T): 0 CFU/g feed
Log CFU/g ([3]; 6 Kg/T): 0.00 Log CFU/g
Total CFU ([3]; 6 Kg/T): 0 CFU
Total counts in CFU at 4 h (n = 5) ([3]; 1.5 Kg/T, listed as PPA): 20 CFU and 10 CFU (2×) and 50 CFU and 0 CFU
Total counts in CFU at 4 h (n = 5) ([3]; 3 Kg/T): 0 CFU
Total counts in CFU at 4 h (n = 5) ([3]; 6 Kg/T): 0 CFU
PPA degradation/min ([4]; 2.5% ammonium hydroxide): 1.10%
H2O2 (%) [4, 13]: 0.77%
PPA (%) [4, 13]: 2.03%
H2O2 (%) [4, 14]: 0.44%
PPA (%) [4, 14]: 0.97%
PPA degradation/min ([4]; 5% sodium hydroxide): 1.16%
H2O2 (%) [4, 15]: 0.9%
PPA (%) [4, 15]: 2.93%
H2O2 (%) [4, 16]: 0.37%
PPA (%) [4, 16]: 1.48%
H2O2 (%) [4, 17]: 1.67%
PPA (%) [4, 17]: 5.27%
H2O2 (%) [4, 18]: 1.6%
PPA (%) [4, 18]: 4.67%
PPA degradation after an hour ([4]; ammonium hydroxide (2.5% wt)): 50%
PPA degradation after an hour ([4]; sodium hydroxide (5% wt.)): 52%
PPA degradation after an hour ([4]; sodium phosphate buffer): ~11%
PPA degradation/min ([4]; sodium phosphate buffer): 0.25%
